Measured values reported in PubChem BioAssay AID2060902 (Molecular Pharmacology Branch, DTP, NCI, 2025).

Tested on: 485368-065-R3-J5-PDC spheroids with HUVEC/MSC, viability
Assay: Anticancer human tumor 485368-065-R3-J5-PDC patient-derived pancreatic carcinoma cell line growth inhibition [RAS]
Conditions: for IC50: curve of first compound; for viability, T/C: stronger effect = lower value
How it was run: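 Tumour cells grown as complex spheroids with HUVEC endothelial cells and mesenchymal stem cells, treated with RAS pathway inhibitor combinations. Each agent spans half-log steps from near clinical Cmax, or 10 microM where Cmax is unknown.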

[1] = second compound 0.000949 µM, first compound 0.0316 µM
[2] = second compound 0.000949 µM, first compound 0.1 µM
[3] = second compound 0.000949 µM, first compound 0.316 µM
[4] = second compound 0.000949 µM, first compound 1 µM
[5] = second compound 0.000949 µM, first compound 3.16 µM
[6] = second compound 0.000949 µM, first compound 10 µM
[7] = second compound 0.003 µM, first compound 0.0316 µM
[8] = second compound 0.003 µM, first compound 0.1 µM
[9] = second compound 0.003 µM, first compound 0.316 µM
[10] = second compound 0.003 µM, first compound 1 µM
[11] = second compound 0.003 µM, first compound 3.16 µM
[12] = second compound 0.003 µM, first compound 10 µM
[13] = second compound 0.00949 µM, first compound 0.0316 µM
[14] = second compound 0.00949 µM, first compound 0.1 µM
[15] = second compound 0.00949 µM, first compound 0.316 µM
[16] = second compound 0.00949 µM, first compound 1 µM
[17] = second compound 0.00949 µM, first compound 3.16 µM
[18] = second compound 0.00949 µM, first compound 10 µM
[19] = second compound 0.03 µM, first compound 0.0316 µM
[20] = second compound 0.03 µM, first compound 0.1 µM
[21] = second compound 0.03 µM, first compound 0.316 µM
[22] = second compound 0.03 µM, first compound 1 µM
[23] = second compound 0.03 µM, first compound 3.16 µM
[24] = second compound 0.03 µM, first compound 10 µM
[25] = second compound 0.0949 µM, first compound 0.0316 µM
[26] = second compound 0.0949 µM, first compound 0.1 µM
[27] = second compound 0.0949 µM, first compound 0.316 µM
[28] = second compound 0.0949 µM, first compound 1 µM
[29] = second compound 0.0949 µM, first compound 3.16 µM
[30] = second compound 0.0949 µM, first compound 10 µM
[31] = second compound 0.3 µM, first compound 0.0316 µM
[32] = second compound 0.3 µM, first compound 0.1 µM
[33] = second compound 0.3 µM, first compound 0.316 µM
[34] = second compound 0.3 µM, first compound 1 µM
[35] = second compound 0.3 µM, first compound 3.16 µM
[36] = second compound 0.3 µM, first compound 10 µM
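Also: spheroids exposed to agents for seven days before readout.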

Question: `CC1(O)CCCC1n1c(=O)c(C(F)F)cc2cnc(NC3CCN(S(C)(=O)=O)CC3)nc21` (stereo unspecified) + CCn1c(-c2cc(N3CCN(C)CC3)cnc2C(C)OC)c2c3cc(ccc31)-c1csc(n1)CC(NC(=O)C1CC1C)C(=O)N1CCCC(N1)C(=O)OCC(C)(C)C2 was tested. Which IC50 (second compound 0.000949 µM) did it give?
Answer: < 31.6 nM

Question: And the IC50 (second compound 0.003 µM)?
Answer: < 31.6 nM

Question: And the IC50 (second compound 0.00949 µM)?
Answer: < 31.6 nM

Question: And the IC50 (second compound 0.03 µM)?
Answer: < 31.6 nM

Question: And the IC50 (second compound 0.0949 µM)?
Answer: < 31.6 nM

Question: And the IC50 (second compound 0.3 µM)?
Answer: < 31.6 nM

Question: And the viability, T/C [1]?
Answer: 32.3%

Question: What about the viability, T/C [2] of the same compound?
Answer: 24.5%

Question: What about the viability, T/C [3] of the same compound?
Answer: 18.9%

Question: And the viability, T/C [4]?
Answer: 21.9%

Question: And the viability, T/C [5]?
Answer: 27.9%

Question: What about the viability, T/C [6] of the same compound?
Answer: 14%

Question: What about the viability, T/C [7] of the same compound?
Answer: 18.5%

Question: And the viability, T/C [8]?
Answer: 15.5%

Question: What about the viability, T/C [9] of the same compound?
Answer: 13.4%

Question: What about the viability, T/C [10] of the same compound?
Answer: 11.9%

Question: And the viability, T/C [11]?
Answer: 14.7%

Question: And the viability, T/C [12]?
Answer: 9.44%

Question: And the viability, T/C [13]?
Answer: 14.6%

Question: What about the viability, T/C [14] of the same compound?
Answer: 12.9%

Question: What about the viability, T/C [15] of the same compound?
Answer: 11.6%

Question: And the viability, T/C [16]?
Answer: 10.3%

Question: And the viability, T/C [17]?
Answer: 11%

Question: And the viability, T/C [18]?
Answer: 8.01%

Question: And the viability, T/C [19]?
Answer: 11.8%

Question: And the viability, T/C [20]?
Answer: 9.04%

Question: And the viability, T/C [21]?
Answer: 9.94%

Question: What about the viability, T/C [22] of the same compound?
Answer: 9.99%

Question: And the viability, T/C [23]?
Answer: 9.98%

Question: What about the viability, T/C [24] of the same compound?
Answer: 8.86%

Question: And the viability, T/C [25]?
Answer: 7.96%

Question: What about the viability, T/C [26] of the same compound?
Answer: 8.33%

Question: What about the viability, T/C [27] of the same compound?
Answer: 7.56%

Question: And the viability, T/C [28]?
Answer: 9.28%

Question: What about the viability, T/C [29] of the same compound?
Answer: 11.6%

Question: And the viability, T/C [30]?
Answer: 8.42%

Question: And the viability, T/C [31]?
Answer: 7.72%

Question: What about the viability, T/C [32] of the same compound?
Answer: 7.59%

Question: And the viability, T/C [33]?
Answer: 7.36%

Question: And the viability, T/C [34]?
Answer: 7.64%

Question: And the viability, T/C [35]?
Answer: 9.08%

Question: And the viability, T/C [36]?
Answer: 7.54%

Question: What does the source list for `CCC(CC)c1cc(NC2CCC(N)C2)n2nccc2n1` (stereo unspecified) + CCn1c(-c2cc(N3CCN(C)CC3)cnc2C(C)OC)c2c3cc(ccc31)-c1csc(n1)CC(NC(=O)C1CC1C)C(=O)N1CCCC(N1)C(=O)OCC(C)(C)C2?
Answer: IC50 (second compound 0.000949 µM): 1050 nM; IC50 (second compound 0.003 µM): < 31.6 nM; IC50 (second compound 0.00949 µM): < 31.6 nM; IC50 (second compound 0.03 µM): < 31.6 nM; IC50 (second compound 0.0949 µM): < 31.6 nM; IC50 (second compound 0.3 µM): < 31.6 nM; viability, T/C [1]: 42%; viability, T/C [2]: 36.8%; viability, T/C [3]: 56.3%; viability, T/C [4]: 72.7%; viability, T/C [5]: 3.44%; viability, T/C [6]: 5.24%; viability, T/C [7]: 23.8%; viability, T/C [8]: 24.9%; viability, T/C [9]: 32.9%; viability, T/C [10]: 38.9%; viability, T/C [11]: 3.26%; viability, T/C [12]: 6.21%; viability, T/C [13]: 15.9%; viability, T/C [14]: 21.2%; viability, T/C [15]: 23.5%; viability, T/C [16]: 35.6%; viability, T/C [17]: 2.54%; viability, T/C [18]: 5.71%; viability, T/C [19]: 14.5%; viability, T/C [20]: 14.5%; viability, T/C [21]: 20.1%; viability, T/C [22]: 30.4%; viability, T/C [23]: 2.68%; viability, T/C [24]: 6.01%; viability, T/C [25]: 8.49%; viability, T/C [26]: 11.9%; viability, T/C [27]: 15.1%; viability, T/C [28]: 30.3%; viability, T/C [29]: 3.16%; viability, T/C [30]: 6.24%; viability, T/C [31]: 8.25%; viability, T/C [32]: 12.6%; viability, T/C [33]: 14.8%; viability, T/C [34]: 25.4%; viability, T/C [35]: 2.42%; viability, T/C [36]: 4.74%

Question: `CCN1CCN(Cc2ccc(Nc3ncc(F)c(-c4cc(F)c5nc(C)n(C(C)C)c5c4)n3)nc2)CC1` + CCn1c(-c2cc(N3CCN(C)CC3)cnc2C(C)OC)c2c3cc(ccc31)-c1csc(n1)CC(NC(=O)C1CC1C)C(=O)N1CCCC(N1)C(=O)OCC(C)(C)C2 was tested. Which IC50 (second compound 0.000949 µM) did it give?
Answer: < 3.16 nM

Question: And the IC50 (second compound 0.003 µM)?
Answer: < 3.16 nM

Question: What about the IC50 (second compound 0.00949 µM) of the same compound?
Answer: < 3.16 nM

Question: What about the IC50 (second compound 0.03 µM) of the same compound?
Answer: < 3.16 nM

Question: What about the IC50 (second compound 0.0949 µM) of the same compound?
Answer: < 3.16 nM

Question: And the IC50 (second compound 0.3 µM)?
Answer: < 3.16 nM

Question: And the viability, T/C (second compound 0.000949 µM, first compound 0.00316 µM)?
Answer: 31.4%

Question: And the viability, T/C (second compound 0.000949 µM, first compound 0.01 µM)?
Answer: 27.4%

Question: And the viability, T/C [1]?
Answer: 31.6%

Question: And the viability, T/C [2]?
Answer: 22.1%

Question: And the viability, T/C [3]?
Answer: 28.7%

Question: And the viability, T/C [4]?
Answer: 27.1%

Question: And the viability, T/C (second compound 0.003 µM, first compound 0.00316 µM)?
Answer: 22.1%

Question: What about the viability, T/C (second compound 0.003 µM, first compound 0.01 µM) of the same compound?
Answer: 21.1%

Question: And the viability, T/C [7]?
Answer: 16.8%

Question: And the viability, T/C [8]?
Answer: 15.4%

Question: What about the viability, T/C [9] of the same compound?
Answer: 18.4%

Question: And the viability, T/C [10]?
Answer: 22.4%

Question: What about the viability, T/C (second compound 0.00949 µM, first compound 0.00316 µM) of the same compound?
Answer: 16.1%

Question: What about the viability, T/C (second compound 0.00949 µM, first compound 0.01 µM) of the same compound?
Answer: 16.4%

Question: And the viability, T/C [13]?
Answer: 11%

Question: And the viability, T/C [14]?
Answer: 15.1%

Question: What about the viability, T/C [15] of the same compound?
Answer: 14.2%

Question: What about the viability, T/C [16] of the same compound?
Answer: 18.3%

Question: What about the viability, T/C (second compound 0.03 µM, first compound 0.00316 µM) of the same compound?
Answer: 11.1%

Question: And the viability, T/C (second compound 0.03 µM, first compound 0.01 µM)?
Answer: 11.8%

Question: What about the viability, T/C [19] of the same compound?
Answer: 9.68%

Question: What about the viability, T/C [20] of the same compound?
Answer: 13.2%

Question: What about the viability, T/C [21] of the same compound?
Answer: 13.1%

Question: And the viability, T/C [22]?
Answer: 16.5%

Question: What about the viability, T/C (second compound 0.0949 µM, first compound 0.00316 µM) of the same compound?
Answer: 8.73%

Question: What about the viability, T/C (second compound 0.0949 µM, first compound 0.01 µM) of the same compound?
Answer: 10.7%

Question: What about the viability, T/C [25] of the same compound?
Answer: 9.07%

Question: What about the viability, T/C [26] of the same compound?
Answer: 8.91%

Question: What about the viability, T/C [27] of the same compound?
Answer: 12.2%

Question: And the viability, T/C [28]?
Answer: 15.6%

Question: And the viability, T/C (second compound 0.3 µM, first compound 0.00316 µM)?
Answer: 8.74%

Question: And the viability, T/C (second compound 0.3 µM, first compound 0.01 µM)?
Answer: 8.83%

Question: What about the viability, T/C [31] of the same compound?
Answer: 7.48%

Question: What about the viability, T/C [32] of the same compound?
Answer: 9.84%

Question: What about the viability, T/C [33] of the same compound?
Answer: 10.8%

Question: And the viability, T/C [34]?
Answer: 15.2%
